PubChem BioAssay AID248 (DTP/NCI, 2004)
Where “and” joins values, the source holds several entries; their conditions need not be identical. Equal values may be shown once. Inconclusive results and toxic doses are left out.

System: L1210 leukemia ip in BDF1 mice, survival T/C
Assay: NCI In Vivo Anticancer Drug Screen. Data for tumor model L1210 Leukemia (intraperitoneal) in B6D2F1 (BDF1) mice
Details: endpoint: mean survival time, higher = longer survival
How it was run: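 Mice bearing the transplanted tumor received compound or vehicle. Survival of the treated group was divided by that of the vehicle-treated control group to give the ratio.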

[1] = dose: 100.0 mg/kg/injection, schedule: Q04DX003 (ip), vehicle: Klucel (hydroxypropylcellulose) (HPC)
[2] = dose: 200.0 mg/kg/injection, schedule: Q04DX003 (ip), vehicle: Klucel (hydroxypropylcellulose) (HPC)
[3] = dose: 400.0 mg/kg/injection, schedule: Q04DX003 (ip), vehicle: Klucel (hydroxypropylcellulose) (HPC)
[4] = dose: 100.0 mg/kg/injection, schedule: Q01DX001 (ip), vehicle: saline
[5] = dose: 200.0 mg/kg/injection, schedule: Q01DX001 (ip), vehicle: saline
[6] = dose: 400.0 mg/kg/injection, schedule: Q01DX001 (ip), vehicle: saline
[7] = dose: 100.0 mg/kg/injection, schedule: Q04DX003 (ip), vehicle: saline with Tween-80
[8] = dose: 200.0 mg/kg/injection, schedule: Q04DX003 (ip), vehicle: saline with Tween-80
[9] = dose: 400.0 mg/kg/injection, schedule: Q04DX003 (ip), vehicle: saline with Tween-80
[10] = dose: 50.0 mg/kg/injection, schedule: Q01DX009 (ip), vehicle: saline
[11] = dose: 100.0 mg/kg/injection, schedule: Q01DX009 (ip), vehicle: saline

`O=C(O)c1ccc2c(c1Nc1ccc(-c3ccc(Nc4c(C(=O)O)ccc5c4C(=O)c4ccccc4C5=O)cc3)cc1)C(=O)c1ccccc1C2=O` was tested. Which T/C [1] did it give?
Its T/C is 93 % of control.

What about the T/C [2] of the same compound?
Its T/C is 97 % of control.

And the T/C [3]?
Its T/C is 101 % of control.

For `O=[N+]([O-])c1ncn(C2OC(CO)C(O)C2O)c1Br` (configuration not stated), which T/C (dose: 50.0 mg/kg/injection, schedule: Q01DX001 (ip), vehicle: saline) is on record?
The T/C was 98 % of control.

And the T/C [4]?
Its T/C is 102 % of control.

What about the T/C [5] of the same compound?
Its T/C is 102 % of control.

And the T/C [6]?
Its T/C is 104 % of control.

How did the T/C [1] turn out when `CCOC(=O)Cc1cnc(SC)nc1N` was run?
The T/C was 95 % of control.

And the T/C [2]?
Its T/C is 94 % of control.

And the T/C [3]?
The T/C was 87 % of control.

What does the source list for `CNC(=O)c1ccccc1N`?
T/C [7]: 100 % of control; T/C [8]: 95 % of control; T/C [9]: 98 % of control

Which results are given for `O=[N+]([O-])c1cc2c(cc1Br)C1C(C3C2C(Cl)(Cl)C(Cl)=C(Cl)C3(Cl)Cl)C(Cl)(Cl)C(Cl)=C(Cl)C1(Cl)Cl` (configuration not stated)?
T/C [4]: 95 % of control; T/C [5]: 100 % of control; T/C [6]: 94 % of control

For `CC(C)NNC(=O)C(N)CO` (configuration not stated), which T/C (dose: 25.0 mg/kg/injection, schedule: Q01DX009 (ip), vehicle: saline) is on record?
Its T/C is 91 % of control.

What about the T/C [10] of the same compound?
The T/C was 97 % of control.

And the T/C [11]?
The T/C was 105 % of control.

And the T/C (dose: 200.0 mg/kg/injection, schedule: Q01DX009 (ip), vehicle: saline)?
Its T/C is 97 % of control.

And the T/C (dose: 400.0 mg/kg/injection, schedule: Q01DX009 (ip), vehicle: saline)?
Its T/C is 107 % of control.

For `Nc1ccc(C(=O)O)c(O)c1.Nc1ccc(C(=O)O)c(O)c1.[Na+].[O]=[V]`, which T/C (dose: 2.0 mg/kg/injection, schedule: Q01DX015 (ip), vehicle: carboxymethylcellulose (CMC)) is on record?
The T/C was 98 % of control.

What about the T/C (dose: 4.0 mg/kg/injection, schedule: Q01DX015 (ip), vehicle: carboxymethylcellulose (CMC)) of the same compound?
The T/C was 93 % of control.

What about the T/C (dose: 8.0 mg/kg/injection, schedule: Q01DX015 (ip), vehicle: carboxymethylcellulose (CMC)) of the same compound?
The T/C was 100 % of control.

And the T/C (dose: 16.0 mg/kg/injection, schedule: Q01DX015 (ip), vehicle: carboxymethylcellulose (CMC))?
The T/C was 110 % of control and 113 % of control.

What about the T/C (dose: 32.0 mg/kg/injection, schedule: Q01DX015 (ip), vehicle: carboxymethylcellulose (CMC)) of the same compound?
The T/C was 101 % of control.

What does the source list for `O=[N+]([O-])c1ccc(S(=O)(=O)O/N=C2\c3ccccc3-c3ccc([N+](=O)[O-])cc32)cc1`?
T/C (dose: 100.0 mg/kg/injection, schedule: Q01DX009 (ip), vehicle: Klucel (hydroxypropylcellulose) (HPC)): 161 % of control; T/C [1]: 97 % of control; T/C (dose: 200.0 mg/kg/injection, schedule: Q01DX009 (ip), vehicle: Klucel (hydroxypropylcellulose) (HPC)): 109 % of control; T/C [2]: 98 % of control; T/C (dose: 400.0 mg/kg/injection, schedule: Q01DX009 (ip), vehicle: Klucel (hydroxypropylcellulose) (HPC)): 109 % of control; T/C [3]: 95 % of control

Which results are given for `NN=C1CCC(=NN)CC1`?
T/C (dose: 25.0 mg/kg/injection, schedule: Q01DX009 (ip), vehicle: water): 101 % of control; T/C (dose: 25.0 mg/kg/injection, schedule: Q04DX003 (ip), vehicle: water): 109 % of control; T/C (dose: 50.0 mg/kg/injection, schedule: Q01DX009 (ip), vehicle: water): 114 % of control; T/C (dose: 50.0 mg/kg/injection, schedule: Q04DX003 (ip), vehicle: water): 109 % of control; T/C (dose: 100.0 mg/kg/injection, schedule: Q04DX003 (ip), vehicle: water): 114 % of control and 124 % of control

What does the source list for `COc1cccc(/C(C)=N\Nc2ccc([N+](=O)[O-])cc2[N+](=O)[O-])c1OC`?
T/C [10]: 92 % of control; T/C [11]: 90 % of control; T/C [7]: 94 % of control and 96 % of control; T/C [8]: 87 % of control; T/C [9]: 86 % of control and 92 % of control

For `NC(=S)c1ccccc1N`, which T/C (dose: 15.0 mg/kg/injection, schedule: Q01DX Z (ip), vehicle: methylcellulose (MC)) is on record?
Its T/C is 110 % of control.

What about the T/C (dose: 30.0 mg/kg/injection, schedule: Q01DX Z (ip), vehicle: methylcellulose (MC)) of the same compound?
The T/C was 98 % of control.

And the T/C (dose: 60.0 mg/kg/injection, schedule: Q01DX Z (ip), vehicle: methylcellulose (MC))?
The T/C was 101 % of control.

What about the T/C (dose: 120.0 mg/kg/injection, schedule: Q01DX Z (ip), vehicle: methylcellulose (MC)) of the same compound?
The T/C was 115 % of control.

`O=c1[nH]cc(CSC(=S)Nc2ccc(Cl)c(Cl)c2)c(=O)[nH]1` was tested. Which T/C (dose: 15.0 mg/kg/injection, schedule: Q04DX003 (ip), vehicle: saline with Tween-80) did it give?
Its T/C is 104 % of control.

And the T/C (dose: 30.0 mg/kg/injection, schedule: Q04DX003 (ip), vehicle: saline with Tween-80)?
The T/C was 101 % of control.

What about the T/C (dose: 60.0 mg/kg/injection, schedule: Q04DX003 (ip), vehicle: saline with Tween-80) of the same compound?
Its T/C is 104 % of control.

For `CC(C)P(CP(=S)(c1ccccc1)c1ccccc1)c1ccccc1` (configuration not stated), which T/C (dose: 100.0 mg/kg/injection, schedule: Q04DX003 (ip), vehicle: carboxymethylcellulose (CMC)) is on record?
The T/C was 98 % of control.

And the T/C (dose: 200.0 mg/kg/injection, schedule: Q04DX003 (ip), vehicle: carboxymethylcellulose (CMC))?
The T/C was 100 % of control.

What about the T/C (dose: 400.0 mg/kg/injection, schedule: Q04DX003 (ip), vehicle: carboxymethylcellulose (CMC)) of the same compound?
Its T/C is 93 % of control.
